Where two headings read alike, the source gives them in different places.
How the values were obtained:
Drosophila OR71a = molecular target: T1, Drosophila OR71a (Drosophila melanogaster, UniProt Q9VUK5); test: Calcium ion fluorescence (GCaMP6) assay, OR71a stable HEK293 cell line; format: cell-based; details: for activation at 1 µM / activation at 10 µM / activation at 100 µM: HEK293, read-out: OR71a response (VUAA1-normalized response); for Average response: VUAA1-normalized response, mean of biological replicates
T1 construct: expressed in transfected cells
T1 sequence (Q9VUK5 1-378): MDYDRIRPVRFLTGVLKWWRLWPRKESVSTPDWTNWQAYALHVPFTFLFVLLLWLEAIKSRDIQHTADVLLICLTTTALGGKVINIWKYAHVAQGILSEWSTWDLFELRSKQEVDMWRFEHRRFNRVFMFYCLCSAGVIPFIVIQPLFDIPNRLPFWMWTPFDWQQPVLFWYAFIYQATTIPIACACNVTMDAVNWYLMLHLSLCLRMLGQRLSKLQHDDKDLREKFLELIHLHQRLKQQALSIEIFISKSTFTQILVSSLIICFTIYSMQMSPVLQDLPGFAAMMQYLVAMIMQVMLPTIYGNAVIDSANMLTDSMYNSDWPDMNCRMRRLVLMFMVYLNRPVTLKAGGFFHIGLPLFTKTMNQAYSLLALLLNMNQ
T1 sequence (Q9VNB5 1-486 partner): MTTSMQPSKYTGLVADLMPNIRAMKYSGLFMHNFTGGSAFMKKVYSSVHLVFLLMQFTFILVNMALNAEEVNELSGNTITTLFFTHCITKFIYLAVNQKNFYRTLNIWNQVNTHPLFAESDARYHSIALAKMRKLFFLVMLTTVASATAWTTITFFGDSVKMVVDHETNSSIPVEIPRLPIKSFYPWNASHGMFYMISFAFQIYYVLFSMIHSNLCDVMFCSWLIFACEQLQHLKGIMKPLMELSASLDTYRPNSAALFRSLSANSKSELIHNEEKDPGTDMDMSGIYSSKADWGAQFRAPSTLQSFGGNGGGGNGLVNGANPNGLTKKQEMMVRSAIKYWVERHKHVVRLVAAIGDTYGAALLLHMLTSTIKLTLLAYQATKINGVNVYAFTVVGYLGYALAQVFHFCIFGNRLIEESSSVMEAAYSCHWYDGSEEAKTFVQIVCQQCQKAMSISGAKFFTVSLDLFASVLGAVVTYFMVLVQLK
Outline: (§1)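 Responses are VUAA1-normalized ΔF: each VOC-evoked calcium signal, (FMAX−F0)/F0 over 30 s after injection, divided by the same line's mean 50 µM VUAA1 response. Cells were doxycycline-induced HEK293 with GCaMP6 and the cognate Drosophila OR, in HEPES buffer pH 7.3; ligands tested 0.01–100 μM.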

Drosophila OR49b = molecular target: T2, Drosophila OR49b (Drosophila melanogaster, UniProt Q9V6H2); test: cell-based; details: for Average response: mean of biological replicates
T2 construct: expressed in transfected cells
T2 sequence (Q9V6H2 1-375): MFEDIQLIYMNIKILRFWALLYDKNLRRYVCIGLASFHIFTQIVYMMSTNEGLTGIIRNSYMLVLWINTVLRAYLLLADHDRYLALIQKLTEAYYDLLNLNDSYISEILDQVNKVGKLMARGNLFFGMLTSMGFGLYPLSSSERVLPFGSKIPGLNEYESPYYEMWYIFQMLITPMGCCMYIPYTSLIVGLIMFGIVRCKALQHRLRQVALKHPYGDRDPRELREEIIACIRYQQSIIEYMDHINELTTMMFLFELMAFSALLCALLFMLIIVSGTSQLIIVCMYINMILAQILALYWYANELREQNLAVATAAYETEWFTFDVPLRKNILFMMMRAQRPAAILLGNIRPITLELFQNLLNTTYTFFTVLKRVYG
T2 sequence (Q9VNB5 1-486 partner): T1 sequence (Q9VNB5 1-486 partner)
Outline: as §1

[1] = ligand concentration 1 (unit not given), threshold 0.05, below shown as 0
[2] = ligand concentration 10 (unit not given), threshold 0.05, below shown as 0
[3] = ligand concentration 100 (unit not given), threshold 0.05, below shown as 0
[4] = HEK293, VOC concentration 1 μM, read-out: OR49b response (VUAA1-normalized response)
[5] = HEK293, VOC concentration 10 μM, read-out: OR49b response (VUAA1-normalized response)
[6] = HEK293, VOC concentration 100 μM, read-out: OR49b response (VUAA1-normalized response)
[7] = OR49b cell line, odorant cc. 1 µM
[8] = OR49b cell line, odorant cc. 10 µM
[9] = OR49b cell line, odorant cc. 100 µM
[10] = concentration 1, normalized fluorescence change, values below 0.05 threshold given as 0
[11] = concentration 10, normalized fluorescence change, values below 0.05 threshold given as 0
[12] = concentration 100, normalized fluorescence change, values below 0.05 threshold given as 0
[13] = HEK293, read-out: OR49b Average response (VUAA1-normalized)
[14] = HEK293, read-out: OR49b response (VUAA1-normalized response)

SMILES | activation at 1 µM (Drosophila OR71a) [%] | activation at 10 µM (Drosophila OR71a) [%] | activation at 100 µM (Drosophila OR71a) [%] | Average response (Drosophila OR71a; OR71a cell line, cc. 1 µM) | Average response (Drosophila OR71a; OR71a cell line, cc. 10 µM) | Average response (Drosophila OR71a; OR71a cell line, cc. 100 µM) | DF norm AVERAGE OR71a (Drosophila OR71a; [1]) | DF norm AVERAGE OR71a (Drosophila OR71a; [2]) | DF norm AVERAGE OR71a (Drosophila OR71a; [3]) | activation at 1 µM (Drosophila OR49b; [4]) [%] | activation at 10 µM (Drosophila OR49b; [5]) [%] | activation at 100 µM (Drosophila OR49b; [6]) [%] | Average response (Drosophila OR49b; [7]) | Average response (Drosophila OR49b; [8]) | Average response (Drosophila OR49b; [9]) | DF norm AVERAGE OR49b (Drosophila OR49b; [1]) | DF norm AVERAGE OR49b (Drosophila OR49b; [2]) | DF norm AVERAGE OR49b (Drosophila OR49b; [3]) | further results
CC1=CC[C@@H](C(C)(C)O)CC1 [alpha-terpineol] | 0 | 0 | 0 | 0.00 | 0.00 | 0.04 | 0 | 0 | 0 | 0 | 0 | 0 | 0.00 | 0.00 | 0.0245 | 0 | 0 | 0 | 
C=C1CC[C@H]2O[C@]2(C)CC[C@@H]2[C@@H]1CC2(C)C [(-)-caryophyllene oxide] | 0 | 0 | 7.44 | 0.00 | 0.00 | 0.0744 |  |  |  | 0 | 0 | 0 | 0.00 | 0.00 | 0.00 |  |  |  | DF norm AVERAGE OR71a (Drosophila OR71a; [10]): 0; DF norm AVERAGE OR71a (Drosophila OR71a; [11]): 0; DF norm AVERAGE OR71a (Drosophila OR71a; [12]): 0.07441; DF norm AVERAGE OR49b (Drosophila OR49b): 0
Cc1ccc(C(C)C)cc1 [p-cymene] |  |  |  | 0.00 | 0.023 | 0.00 | 0 | 0 | 0 |  |  |  | 0.00 | 0.00 | 0.00 | 0 | 0 | 0 | OR71a response (VUAA1-normalized) at 1 μM (Drosophila OR71a; OR71a cell line, VOC concentration 1 μM): 0.00; OR71a response (VUAA1-normalized) at 10 μM (Drosophila OR71a; OR71a cell line, VOC concentration 10 μM): 0.00; OR71a response (VUAA1-normalized) at 100 μM (Drosophila OR71a; OR71a cell line, VOC concentration 100 μM): 0.00; OR49b response (VUAA1-normalized) at 1 μM (Drosophila OR49b; OR49b cell line, VOC concentration 1 μM): 0.00; OR49b response (VUAA1-normalized) at 10 μM (Drosophila OR49b; OR49b cell line, VOC concentration 10 μM): 0.00; OR49b response (VUAA1-normalized) at 100 μM (Drosophila OR49b; OR49b cell line, VOC concentration 100 μM): 0.00
CCOC(=O)CC [ethyl propionate] | 0 | 0 | 0 | 0.0185 | 0.00 | 0.00 | 0 | 0 | 0 | 0 | 0 | 0 | 0.00 | 0.00 | 0.0428 | 0 | 0 | 0 | 
CC/C=C/CCO [e3-hexenol] |  |  |  | 0.00 | 0.0432 | 0.0275 | 0 | 0 | 0 |  |  |  | 0.00 | 0.00 | 0.08 | 0 | 0 | 0.07888 | 
CCCCOC(C)=O [butyl acetate] | 0 | 0 | 0 | 0.00 | 0.00 | 0.0132 | 0 | 0 | 0 |  |  |  |  |  |  |  |  |  | activation at 1 µM (Drosophila OR49b; [13]): 0%; activation at 10 µM (Drosophila OR49b; [13]): 0%; activation at 1 µM (Drosophila OR49b; [14]): 0%; activation at 10 µM (Drosophila OR49b; [14]): 0%; activation at 100 µM (Drosophila OR49b; [14]): 20%
CC(=O)c1ccccc1 [acetophenone] | 0 | 0 | 0 | 0.00 | 0.00 | 0.00 | 0 | 0 | 0 | 0 | 0 | 13 | 0.00 | 0.00 | 0.13 | 0 | 0 | 0.1277 | activation at 1 µM (Drosophila OR49b; HEK293, 1 μM VOC, 50 μM VUAA1 = 1, read-out: OR49b Average response (VUAA1-normalized)): 0%; activation at 10 µM (Drosophila OR49b; HEK293, 10 μM VOC, 50 μM VUAA1 = 1, read-out: OR49b Average response (VUAA1-normalized)): 0%; activation at 100 µM (Drosophila OR49b; HEK293, 100 μM VOC, 50 μM VUAA1 = 1, read-out: OR49b Average response (VUAA1-normalized)): 13%
CCCCCC(O)CC (stereo not drawn) [3-octanol] | 0 | 0 | 0 | 0.0215 | 0.00 | 0.00 |  |  |  | 0 | 7 | 5.5 | 0.00 | 0.07 | 0.055 |  |  |  | DF norm AVERAGE OR71a (Drosophila OR71a; [10]): 0; DF norm AVERAGE OR71a (Drosophila OR71a; [11]): 0; DF norm AVERAGE OR71a (Drosophila OR71a; [12]): 0

Source: paper PMC10709440, “High-throughput ligand profile characterization in novel cell lines expressing seven heterologous insect olfactory receptors for the detection of volatile plant biomarkers” (Scientific Reports, 2023)
